Results as given in PubChem BioAssay (NCI).
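Following 48 hours of exposure in 96-well plates, responses at five concentrations were used to interpolate endpoints linearly. GI50 is the concentration that inhibits growth by half. TGI: total growth inhibition.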

Assays:
Test in all cases: inhibition of tumour cell growth, NCI panel, 48 h
HOP-62 NSCLC = test system: HOP-62 NSCLC
UO-31 renal = test system: UO-31 renal
T-47D breast = test system: T-47D breast
HCT-116 colon = test system: HCT-116 colon
RPMI-8226 leukemia = test system: RPMI-8226 leukemia
EKVX NSCLC = test system: EKVX NSCLC
DU-145 prostate = test system: DU-145 prostate
786-0 renal = test system: 786-0 renal
OVCAR-3 ovarian = test system: OVCAR-3 ovarian
RXF 393 renal = test system: RXF 393 renal
MCF7 breast = test system: MCF7 breast
SF-295 CNS = test system: SF-295 CNS
ACHN renal = test system: ACHN renal
SW-620 colon = test system: SW-620 colon
SK-MEL-2 melanoma = test system: SK-MEL-2 melanoma
SK-MEL-5 melanoma = test system: SK-MEL-5 melanoma
KM12 colon = test system: KM12 colon
CAKI-1 renal = test system: CAKI-1 renal
MOLT-4 leukemia = test system: MOLT-4 leukemia
OVCAR-8 ovarian = test system: OVCAR-8 ovarian
MDA-MB-231 breast = test system: MDA-MB-231 breast
OVCAR-5 ovarian = test system: OVCAR-5 ovarian
UACC-257 melanoma = test system: UACC-257 melanoma
HT29 colon = test system: HT29 colon
A549 NSCLC = test system: A549 NSCLC
SN12C renal = test system: SN12C renal
IGROV1 ovarian = test system: IGROV1 ovarian
PC-3 prostate = test system: PC-3 prostate
HCT-15 colon = test system: HCT-15 colon
SK-MEL-28 melanoma = test system: SK-MEL-28 melanoma
CCRF-CEM leukemia = test system: CCRF-CEM leukemia
HOP-92 NSCLC = test system: HOP-92 NSCLC
NCI-H226 lung = test system: NCI-H226 lung
HL-60(TB) leukemia = test system: HL-60(TB) leukemia
HCC-2998 colon = test system: HCC-2998 colon
NCI-H460 lung = test system: NCI-H460 lung
SNB-75 CNS = test system: SNB-75 CNS
OVCAR-4 ovarian = test system: OVCAR-4 ovarian
SK-OV-3 ovarian = test system: SK-OV-3 ovarian
SF-539 CNS = test system: SF-539 CNS
LOX IMVI melanoma = test system: LOX IMVI melanoma
MDA-MB-435 = test system: MDA-MB-435
SR leukemia = test system: SR leukemia
A498 renal = test system: A498 renal
M14 melanoma = test system: M14 melanoma
UACC-62 melanoma = test system: UACC-62 melanoma
MALME-3M melanoma = test system: MALME-3M melanoma
HS 578T breast = test system: HS 578T breast
TK-10 renal = test system: TK-10 renal
U251 CNS = test system: U251 CNS
SNB-19 CNS = test system: SNB-19 CNS
COLO 205 colon = test system: COLO 205 colon
SF-268 CNS = test system: SF-268 CNS
K-562 leukemia = test system: K-562 leukemia
NCI/ADR-RES ovarian = test system: NCI/ADR-RES ovarian
BT-549 breast = test system: BT-549 breast
NCI-H522 lung = test system: NCI-H522 lung

COCCNc1ccc2ncc(C#Cc3cncc(C(=O)Nc4ccc(CN5CCN(C)CC5)c(C(F)(F)F)c4)c3)n2n1
GI50 (HOP-62 NSCLC): 242 nM | TGI (HOP-62 NSCLC): 1370 nM | GI50 (UO-31 renal): 777 nM | TGI (UO-31 renal): 1990 nM | GI50 (T-47D breast): 325 nM | TGI (T-47D breast): 1580 nM | GI50 (HCT-116 colon): 80.4 nM | TGI (HCT-116 colon): 387 nM | GI50 (RPMI-8226 leukemia): 195 nM | TGI (RPMI-8226 leukemia): 719 nM | GI50 (EKVX NSCLC): 186 nM | TGI (EKVX NSCLC): 807 nM | GI50 (DU-145 prostate): 251 nM | TGI (DU-145 prostate): 1540 nM | GI50 (786-0 renal): 236 nM | TGI (786-0 renal): 939 nM | GI50 (OVCAR-3 ovarian): 232 nM | TGI (OVCAR-3 ovarian): 1340 nM | GI50 (RXF 393 renal): 145 nM | TGI (RXF 393 renal): 432 nM | GI50 (MCF7 breast): 139 nM | TGI (MCF7 breast): 933 nM | GI50 (SF-295 CNS): 708 nM | TGI (SF-295 CNS): 3330 nM | GI50 (ACHN renal): 157 nM | TGI (ACHN renal): 870 nM | GI50 (SW-620 colon): 83.1 nM | TGI (SW-620 colon): 257 nM | GI50 (SK-MEL-2 melanoma): 97.8 nM | TGI (SK-MEL-2 melanoma): 273 nM | GI50 (SK-MEL-5 melanoma): 575 nM | TGI (SK-MEL-5 melanoma): 1240 nM | GI50 (KM12 colon): 5 nM | TGI (KM12 colon): 1200 nM | GI50 (CAKI-1 renal): 113 nM | TGI (CAKI-1 renal): 327 nM | GI50 (MOLT-4 leukemia): 51.4 nM | TGI (MOLT-4 leukemia): 1510 nM | GI50 (OVCAR-8 ovarian): 197 nM | TGI (OVCAR-8 ovarian): 830 nM | GI50 (MDA-MB-231 breast): 82.3 nM | TGI (MDA-MB-231 breast): 333 nM | GI50 (OVCAR-5 ovarian): 234 nM | TGI (OVCAR-5 ovarian): 1400 nM | GI50 (UACC-257 melanoma): 692 nM | TGI (UACC-257 melanoma): 2130 nM | GI50 (HT29 colon): 198 nM | TGI (HT29 colon): 954 nM | GI50 (A549 NSCLC): 208 nM | TGI (A549 NSCLC): 1120 nM | GI50 (SN12C renal): 88.8 nM | TGI (SN12C renal): 766 nM | GI50 (IGROV1 ovarian): 123 nM | TGI (IGROV1 ovarian): 639 nM | GI50 (PC-3 prostate): 254 nM | TGI (PC-3 prostate): 2130 nM | GI50 (HCT-15 colon): 180 nM | TGI (HCT-15 colon): 715 nM | GI50 (SK-MEL-28 melanoma): 402 nM | TGI (SK-MEL-28 melanoma): 1300 nM | GI50 (CCRF-CEM leukemia): 24.9 nM | TGI (CCRF-CEM leukemia): 6680 nM | GI50 (HOP-92 NSCLC): 50.3 nM | TGI (HOP-92 NSCLC): 229 nM | GI50 (NCI-H226 lung): 147 nM | TGI (NCI-H226 lung): 980 nM | GI50 (HL-60(TB) leukemia): 134 nM | TGI (HL-60(TB) leukemia): 566 nM | GI50 (HCC-2998 colon): 315 nM | TGI (HCC-2998 colon): 1090 nM | GI50 (NCI-H460 lung): 123 nM | TGI (NCI-H460 lung): 621 nM | GI50 (SNB-75 CNS): 25.7 nM | TGI (SNB-75 CNS): 126 nM | GI50 (OVCAR-4 ovarian): 352 nM | TGI (OVCAR-4 ovarian): 2030 nM | GI50 (SK-OV-3 ovarian): 426 nM | TGI (SK-OV-3 ovarian): 1290 nM | GI50 (SF-539 CNS): 41.4 nM | TGI (SF-539 CNS): 215 nM | GI50 (LOX IMVI melanoma): 97.3 nM | TGI (LOX IMVI melanoma): 338 nM | GI50 (MDA-MB-435): 142 nM | TGI (MDA-MB-435): 843 nM | GI50 (SR leukemia): 78.3 nM | TGI (SR leukemia): 760 nM | GI50 (A498 renal): 221 nM | TGI (A498 renal): 474 nM | GI50 (M14 melanoma): 125 nM | TGI (M14 melanoma): 408 nM | GI50 (UACC-62 melanoma): 284 nM | TGI (UACC-62 melanoma): 832 nM | GI50 (MALME-3M melanoma): 181 nM | TGI (MALME-3M melanoma): 711 nM | GI50 (HS 578T breast): 77.9 nM | TGI (HS 578T breast): 452 nM | GI50 (TK-10 renal): 232 nM | TGI (TK-10 renal): 729 nM | GI50 (U251 CNS): 265 nM | TGI (U251 CNS): 984 nM | GI50 (SNB-19 CNS): 289 nM | TGI (SNB-19 CNS): 1820 nM | GI50 (COLO 205 colon): 120 nM | TGI (COLO 205 colon): 294 nM | GI50 (SF-268 CNS): 156 nM | TGI (SF-268 CNS): 737 nM | GI50 (K-562 leukemia): 9.89 nM | TGI (K-562 leukemia): 540 nM | GI50 (NCI/ADR-RES ovarian): 1890 nM | TGI (NCI/ADR-RES ovarian): 50000 nM | GI50 (BT-549 breast): 434 nM | TGI (BT-549 breast): 1210 nM | GI50 (NCI-H522 lung): 99.8 nM | TGI (NCI-H522 lung): 315 nM
